Data from US20260008762A1, “CANNABINOID ACIDS CRYSTALLINE FORMS, METHODS OF PRODUCING, AND USES THEREOF” (priority 2022, published 2026).

Columns and labels:
[1] = compared with THCa under similar conditions; cited from earlier work
[2] = molecular target: SARS-CoV-2 spike protein S1 C-terminal domain (Severe acute respiratory syndrome coronavirus 2, UniProt P0DTC2); details: can inhibit the virus' ability to enter new host cells; cited from earlier work
[3] = Thermogravimetric analysis (TGA) of crystalline form; type: physicochemical; details: crystalline single component form, dry nitrogen flow
Experimental: Thermal gravimetric analysis (TGA) was carried out using a TA instruments 2910 under dry nitrogen flow (30 mL/min for both the furnace and the balance). For a typical experiment, 5-10 mg of solid material was placed into the pan and was allowed to equilibrate at room temperature under nitrogen for approximately 5 minutes prior to the start of each experiment to ensure a stable baseline. A heating rate of 1° C./min or 5° C./min was utilized.

Compound	rate of decarboxylation [1]	binding to SARS-CoV-2 spike protein S1 C-terminal domain [2]	TGA degradation onset [3]
C=C(C)[C@@H]1CCC(C)=C[C@H]1c1c(O)cc(CCCCC)c(C(=O)O)c1O [CBDa, cannabidiolic acid]	decarboxylates at a faster rate than THCa	found to bind to the SARS-CoV-2 spike protein S1 C-terminal domain	about 150 °C
CCCCCc1cc(O)c(C/C=C(\C)CCC=C(C)C)c(O)c1C(=O)O [CBGa, cannabigerolic acid]	–	found to bind to the SARS-CoV-2 spike protein S1 C-terminal domain	about 115 °C
CCCCCc1cc2c(c(O)c1C(=O)O)[C@@H]1C=C(C)CC[C@H]1C(C)(C)O2 [THCa, tetrahydrocannabinolic acid]	–	–	about 125 °C
